# In ChEMBL document CHEMBL1201862, “PubChem BioAssay data set” (2004):
# The source made the active and inactive calls.
# Legend:
# [1] = system: Streptococcus; test: GAS UMAA2166 growth inhibition – luminescence, BacTiterGlo, counter-screen for streptokinase expression inhibitor project, dose response (AID 1915); assay type: functional, organism-based;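 also: potency for reduction of bacterial viability or growth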
# [2] = target: T1, Streptokinase A (Streptococcus pyogenes serotype M1, UniProt P10520); test: viability-normalized secreted streptokinase activity reduction – plasminogen activation absorbance, OD405, dose response (AID 1914); assay type: functional, Streptococcus pyogenes M1 GAS;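 also: secreted streptokinase activity via plasminogen activation per viability signal from cell pellet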
# T1 sequence (P10520 whole entry): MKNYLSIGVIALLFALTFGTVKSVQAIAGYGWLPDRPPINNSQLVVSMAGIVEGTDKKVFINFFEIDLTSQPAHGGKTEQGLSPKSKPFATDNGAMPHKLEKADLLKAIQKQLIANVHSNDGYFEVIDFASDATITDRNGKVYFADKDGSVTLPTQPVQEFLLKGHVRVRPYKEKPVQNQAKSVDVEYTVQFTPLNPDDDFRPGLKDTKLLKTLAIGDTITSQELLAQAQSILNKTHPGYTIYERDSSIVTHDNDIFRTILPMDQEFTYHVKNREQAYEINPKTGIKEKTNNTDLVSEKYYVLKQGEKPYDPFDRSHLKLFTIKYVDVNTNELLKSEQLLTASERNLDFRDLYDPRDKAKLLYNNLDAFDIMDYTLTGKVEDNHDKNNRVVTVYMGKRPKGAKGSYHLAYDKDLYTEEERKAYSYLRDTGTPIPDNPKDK
# [3] = system: Streptococcus sp. 'group A'; test: Streptococcus pyogenes SK(-)GAS viability under kanamycin – luminescence, BacTiterGlo, confirmation, counter-screen for streptokinase expression inhibitor project, dose response (AID 1900); assay type: functional, organism-based
# [4] = target: Peroxisome proliferator-activated receptor gamma/Nuclear receptor coactivator 1 (Homo sapiens, UniProt P37231); test: TR-FRET dose response biochemical High Throughput Screening assay for agonists of the steroid receptor coactivator 1 (SRC-1) recruitment by the peroxisome proliferator-activated receptor gamma (PPAR gamma): non-selective agonists. [Related pubchem assays (depositor defined):AID1300, AID1808, AID504735, AID631]; assay type: protein assay
# [5] = target: Peroxisome proliferator-activated receptor gamma/Nuclear receptor coactivator 3 (Homo sapiens, UniProt P37231); test: TR-FRET dose response biochemical High Throughput Screening assay for agonists of the steroid receptor coactivator 3 (SRC-3) recruitment by the peroxisome proliferator-activated receptor gamma (PPAR gamma): non-selective agonists. [Related pubchem assays: 1301 (Confirmation screen.), 1048 (Primary screen.)]; assay type: functional
# [6] = target: Peroxisome proliferator-activated receptor gamma/Nuclear receptor coactivator 2 (Homo sapiens, UniProt P37231); test: TR-FRET dose response biochemical High Throughput Screening assay for agonists of the steroid receptor coactivator 2 (SRC-2) recruitment by the peroxisome proliferator-activated receptor gamma (PPAR gamma): non-selective agonists. [Related pubchem assays: 1297, 1032 ]; assay type: functional
# [7] = target: T2, Short transient receptor potential channel 4 (Mus musculus, UniProt Q9QUQ5); test: block of DAMGO-driven TRPC4 calcium entry – cell-based, HEK293 TRPC4/mu-opioid, Fluo-4 calcium, dose response (AID 434942); assay type: functional;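 also: potency of inhibitors blocking the TRPC4 calcium response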
# T2 sequence (Q9QUQ5 whole entry): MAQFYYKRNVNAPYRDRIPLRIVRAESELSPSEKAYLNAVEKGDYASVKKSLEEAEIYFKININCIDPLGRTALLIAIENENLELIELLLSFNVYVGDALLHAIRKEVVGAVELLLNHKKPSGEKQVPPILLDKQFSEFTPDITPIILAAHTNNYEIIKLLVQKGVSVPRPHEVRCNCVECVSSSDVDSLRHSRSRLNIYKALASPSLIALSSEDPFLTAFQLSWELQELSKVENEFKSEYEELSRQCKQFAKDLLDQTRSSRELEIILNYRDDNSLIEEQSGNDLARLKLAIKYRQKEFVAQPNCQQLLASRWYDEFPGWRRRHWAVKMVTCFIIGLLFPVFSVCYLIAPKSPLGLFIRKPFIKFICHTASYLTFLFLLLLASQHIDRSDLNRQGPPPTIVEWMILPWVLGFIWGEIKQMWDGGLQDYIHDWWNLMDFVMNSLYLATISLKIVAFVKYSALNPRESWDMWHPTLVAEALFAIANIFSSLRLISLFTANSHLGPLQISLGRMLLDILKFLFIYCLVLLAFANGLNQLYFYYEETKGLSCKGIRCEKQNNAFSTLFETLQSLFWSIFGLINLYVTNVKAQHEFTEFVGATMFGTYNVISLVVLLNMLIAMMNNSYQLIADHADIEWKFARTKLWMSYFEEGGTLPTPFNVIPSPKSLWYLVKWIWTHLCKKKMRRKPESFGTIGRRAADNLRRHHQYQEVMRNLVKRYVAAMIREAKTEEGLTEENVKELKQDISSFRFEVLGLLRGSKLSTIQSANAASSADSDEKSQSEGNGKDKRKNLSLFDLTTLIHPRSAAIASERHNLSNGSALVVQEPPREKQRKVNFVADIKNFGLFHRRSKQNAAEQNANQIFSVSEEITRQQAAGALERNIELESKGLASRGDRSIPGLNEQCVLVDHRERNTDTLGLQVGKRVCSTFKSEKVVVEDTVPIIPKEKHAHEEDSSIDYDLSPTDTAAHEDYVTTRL
# [8] = target: T2, Short transient receptor potential channel 4; test: calcium entry via TRPC4 opening agents – cell-based, HEK293 TRPC4/mu-opioid, Fluo-4 calcium, dose response (AID 434937); assay type: functional
# [9] = fluconazole-exposed Candida albicans growth modulators – fluorescence, retest, confirmation (AID 2467); assay type: functional, cell-based
# [10] = NIH-3T3 fibroblast cytotoxicity, dose response, cytotoxicity control, cell-based, fluorescence, Alamar Blue, secondary assay (AID 2327); assay type: functional;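 also: NIH-3T3 mouse fibroblasts cultured with fluconazole at 8 µg/mL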
# [11] = cAMP pathway inhibition in counterscreen cell line – TR-FRET cAMP detection, counter-screen for MC4R biased antagonist project, dose response (AID 602305); assay type: functional, cell-based;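 also: U2OS cells stimulated with forskolin near its EC80 as the cAMP inducer; potency is for inhibition of forskolin-stimulated cAMP signaling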
# [12] = target: Melanocortin receptor 4 (Homo sapiens, UniProt P32245); test: inhibitors of MC4R cAMP signaling – cell-based, TR-FRET, biased antagonists, dose response (AID 602298); assay type: functional;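 also: antagonist potency against agonist-stimulated cAMP production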
# [13] = system: INS1; test: INS-1E survival protection against cytokine death – cell-based, luminescence, retest, dose response (AID 449756); assay type: functional; settings: Rattus norvegicus;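 also: cell death triggered by IL-1 beta plus TNF-alpha plus IFN-gamma mixture; protective hits raise ATP signal compared with cytokine alone wells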
# [14] = NIH3T3 cell viability loss – ATP luminescence, mouse fibroblasts, counter-screen, dose response (AID 2010); assay type: functional, cell-based;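 also: cells exposed to compound for about 90 hours before reading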
# [15] = cells; assay type: functional, cell-based
# [16] = cells; assay type: functional, cell-based; remark: listed apart in the source
# [17] = target: T3, Microphthalmia-associated transcription factor (Homo sapiens, UniProt O75030); test: reducers of TRPM1 reporter luminescence, concentration series – cell-based, SK-MEL-5, cherry-picked, set 3, MITF inhibitor project, dose response (AID 493073); assay type: functional;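 also: SK-MEL-5 melanoma cells with luciferase driven by the MITF target TRPM1 promoter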
# T3 sequence (O75030 whole entry): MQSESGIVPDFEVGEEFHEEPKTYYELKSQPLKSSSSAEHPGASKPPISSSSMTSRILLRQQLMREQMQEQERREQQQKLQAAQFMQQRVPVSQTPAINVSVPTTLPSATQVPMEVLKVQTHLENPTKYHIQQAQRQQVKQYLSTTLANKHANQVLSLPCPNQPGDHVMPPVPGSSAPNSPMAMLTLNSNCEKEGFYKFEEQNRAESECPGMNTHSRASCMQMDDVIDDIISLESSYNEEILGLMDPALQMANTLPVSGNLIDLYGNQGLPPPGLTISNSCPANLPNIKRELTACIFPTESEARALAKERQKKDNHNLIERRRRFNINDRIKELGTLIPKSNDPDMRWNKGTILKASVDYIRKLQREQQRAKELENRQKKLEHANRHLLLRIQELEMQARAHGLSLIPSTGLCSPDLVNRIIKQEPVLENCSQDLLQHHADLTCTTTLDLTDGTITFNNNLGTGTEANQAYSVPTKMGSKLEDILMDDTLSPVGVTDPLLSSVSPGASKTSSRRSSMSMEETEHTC
# [18] = Trypanosoma cruzi growth suppression in host cells – NIH3T3 host cells, beta-gal luminescence, confirmation (AID 2044); assay type: functional, cell-based;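 also: intracellular parasites grown in NIH/3T3 mouse fibroblasts as host cells; luminescent beta-galactosidase reporter signal from transgenic T. cruzi replicating inside host cells; inhibitors lower the luminescence signal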
# [19] = Luminescence Cell-Based Dose Retest to Confirm Inhibitors of Cancer Stem Cells. [Related pubchem assays (depositor defined):AID2717, AID2721]; assay type: functional; settings: Homo sapiens
# [20] = HEK-293T viability loss after treatment – luminescence, T-cell screen hits, cytotoxicity control for TCR NF-kB inhibitor project, dose response (AID 489026); assay type: functional, cell-based;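 also: cells exposed to compound about 14 hours before the viability readout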
# [21] = target: T4, SUMO-activating enzyme (Homo sapiens, UniProt Q9UBT2); test: blockers of SAE1/SAE2–UBC9 SUMO transfer – biochemical, HTRF, uHTS, primary screen (AID 2006); assay type: protein-complex assay
# [22] = target: T4, SUMO-activating enzyme; test: blockers of UBC9-mediated SUMO conjugation – biochemical, AlphaScreen, SUMOylation inhibitor project, confirmation (AID 2018); assay type: functional
# [23] = system: BJ; test: cells; assay type: functional, cell-based; settings: Homo sapiens
# [24] = Luminescence Cell-Based Dose Response HTS to Identify Inhibitors of 5'UTR Stem-Loop Driven Prion Protein mRNA Translation in H4 Neuroglioblastoma Cells. [Related pubchem assays: 1827 (Project Summary), 1813 (Primary HTS)]; assay type: functional
# [25] = alpha-synuclein stem-loop luciferase translation blockers – H4 neuroglioma cells, luminescence, confirmation (AID 1988); assay type: functional, cell-based
# [26] = luciferase reporter signal suppression in cells – H4 neuroglioma cells, luminescence, dose response (AID 1990); assay type: functional, cell-based
# [27] = DRD fibroblast viability loss – cell-based, non-viral oncogenic, luminescence, dose response (AID 1934); assay type: functional; settings: Homo sapiens
# [28] = system: BJ; test: BJ-TERT fibroblast viability loss – cell-based, RAS-independent, luminescence, dose response (AID 1933); assay type: functional; settings: Homo sapiens
# [29] = system: BJ; test: BJ-TERT-LT-ST fibroblast viability loss – cell-based, RAS-independent, luminescence, dose response (AID 1935); assay type: functional; settings: Homo sapiens;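 also: BJ fibroblasts immortalized with TERT plus LT and ST oncogenes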
# [30] = viability of HCT116 lacking mutant beta-catenin – cell-based, human colon tumor, dose response (AID 1045); assay type: functional;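 also: HCT116 colon tumor cells with beta catenin knocked out; cells exposed to compound for 60 hours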
# [31] = target: Paired box protein Pax-8 (Homo sapiens, UniProt Q06710); test: PAX8 transcriptional activity inhibition in RMG-I – RMG-I cells, luciferase, cherry-pick, dose response (AID 687027); assay type: functional, cell-based;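 also: luciferase reporter driven by Pax8 target thyroperoxidase promoter measured by SteadyGlo luminescence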
# [32] = viability of PTEN-deleted HCT116 cells – cell-based, HCT116 PTEN knockout, dose response (AID 1047); assay type: functional;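 also: HCT116 colon tumor cells with PTEN knocked out; cells exposed to compound for 60 hours before readout; potency for loss of cell viability measured by luminescence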
# Chain of Peroxisome proliferator-activated receptor gamma/Nuclear receptor coactivator 2 (P37231 whole entry): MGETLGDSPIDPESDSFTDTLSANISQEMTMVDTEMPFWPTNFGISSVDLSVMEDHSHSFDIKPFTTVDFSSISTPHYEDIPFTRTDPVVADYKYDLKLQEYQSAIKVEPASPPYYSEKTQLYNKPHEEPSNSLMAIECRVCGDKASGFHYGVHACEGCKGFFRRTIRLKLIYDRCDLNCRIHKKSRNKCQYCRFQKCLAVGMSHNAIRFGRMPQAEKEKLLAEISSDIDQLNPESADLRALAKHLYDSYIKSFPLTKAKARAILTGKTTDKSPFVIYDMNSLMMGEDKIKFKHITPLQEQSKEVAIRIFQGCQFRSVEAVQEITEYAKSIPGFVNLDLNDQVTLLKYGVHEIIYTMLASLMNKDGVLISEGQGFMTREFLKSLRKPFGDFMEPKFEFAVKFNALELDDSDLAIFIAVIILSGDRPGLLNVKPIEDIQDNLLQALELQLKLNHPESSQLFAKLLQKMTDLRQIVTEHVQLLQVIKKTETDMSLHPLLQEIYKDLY
# Chain of Peroxisome proliferator-activated receptor gamma/Nuclear receptor coactivator 2 (Q15596 whole entry, further chain): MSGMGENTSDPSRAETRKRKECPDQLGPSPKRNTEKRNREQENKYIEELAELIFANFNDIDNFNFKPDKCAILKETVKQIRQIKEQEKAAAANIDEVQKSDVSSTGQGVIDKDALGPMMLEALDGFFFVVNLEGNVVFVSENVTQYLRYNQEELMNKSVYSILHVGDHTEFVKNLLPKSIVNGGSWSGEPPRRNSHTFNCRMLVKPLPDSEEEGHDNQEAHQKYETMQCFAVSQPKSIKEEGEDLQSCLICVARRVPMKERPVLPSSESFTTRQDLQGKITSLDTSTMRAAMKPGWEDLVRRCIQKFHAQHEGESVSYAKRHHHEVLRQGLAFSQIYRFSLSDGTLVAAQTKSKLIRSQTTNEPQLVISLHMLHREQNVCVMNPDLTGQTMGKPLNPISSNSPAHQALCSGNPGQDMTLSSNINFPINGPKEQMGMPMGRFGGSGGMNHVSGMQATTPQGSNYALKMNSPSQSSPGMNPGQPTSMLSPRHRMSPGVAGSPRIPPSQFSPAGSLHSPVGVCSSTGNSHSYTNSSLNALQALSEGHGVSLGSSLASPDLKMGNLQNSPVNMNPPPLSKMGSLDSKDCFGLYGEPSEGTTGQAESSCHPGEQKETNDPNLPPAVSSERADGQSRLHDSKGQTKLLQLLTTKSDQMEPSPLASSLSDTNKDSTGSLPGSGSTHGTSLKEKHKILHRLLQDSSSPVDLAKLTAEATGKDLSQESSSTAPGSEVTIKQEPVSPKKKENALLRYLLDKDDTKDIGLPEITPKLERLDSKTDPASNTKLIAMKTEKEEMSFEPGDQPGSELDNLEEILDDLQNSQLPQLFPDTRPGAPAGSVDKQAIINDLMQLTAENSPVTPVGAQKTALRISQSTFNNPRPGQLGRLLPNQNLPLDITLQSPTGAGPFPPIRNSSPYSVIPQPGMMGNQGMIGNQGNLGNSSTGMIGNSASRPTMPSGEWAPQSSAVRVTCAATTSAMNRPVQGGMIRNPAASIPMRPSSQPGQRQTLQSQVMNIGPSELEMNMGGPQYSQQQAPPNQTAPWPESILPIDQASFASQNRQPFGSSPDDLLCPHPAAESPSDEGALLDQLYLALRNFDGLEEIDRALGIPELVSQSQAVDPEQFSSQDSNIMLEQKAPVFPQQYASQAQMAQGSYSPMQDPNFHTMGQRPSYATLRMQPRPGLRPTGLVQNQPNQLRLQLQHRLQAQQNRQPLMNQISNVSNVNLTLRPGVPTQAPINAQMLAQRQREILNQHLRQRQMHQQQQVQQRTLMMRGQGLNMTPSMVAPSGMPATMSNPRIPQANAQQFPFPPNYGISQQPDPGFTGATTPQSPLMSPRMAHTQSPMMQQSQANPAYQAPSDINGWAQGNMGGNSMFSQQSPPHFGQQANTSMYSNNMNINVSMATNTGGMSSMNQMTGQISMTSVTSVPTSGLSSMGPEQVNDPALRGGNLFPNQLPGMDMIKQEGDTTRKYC
# Chain of Peroxisome proliferator-activated receptor gamma/Nuclear receptor coactivator 1 (P37231 whole entry): as the sequence (P37231 whole entry) above
# Chain of Peroxisome proliferator-activated receptor gamma/Nuclear receptor coactivator 1 (Q15788 whole entry, further chain): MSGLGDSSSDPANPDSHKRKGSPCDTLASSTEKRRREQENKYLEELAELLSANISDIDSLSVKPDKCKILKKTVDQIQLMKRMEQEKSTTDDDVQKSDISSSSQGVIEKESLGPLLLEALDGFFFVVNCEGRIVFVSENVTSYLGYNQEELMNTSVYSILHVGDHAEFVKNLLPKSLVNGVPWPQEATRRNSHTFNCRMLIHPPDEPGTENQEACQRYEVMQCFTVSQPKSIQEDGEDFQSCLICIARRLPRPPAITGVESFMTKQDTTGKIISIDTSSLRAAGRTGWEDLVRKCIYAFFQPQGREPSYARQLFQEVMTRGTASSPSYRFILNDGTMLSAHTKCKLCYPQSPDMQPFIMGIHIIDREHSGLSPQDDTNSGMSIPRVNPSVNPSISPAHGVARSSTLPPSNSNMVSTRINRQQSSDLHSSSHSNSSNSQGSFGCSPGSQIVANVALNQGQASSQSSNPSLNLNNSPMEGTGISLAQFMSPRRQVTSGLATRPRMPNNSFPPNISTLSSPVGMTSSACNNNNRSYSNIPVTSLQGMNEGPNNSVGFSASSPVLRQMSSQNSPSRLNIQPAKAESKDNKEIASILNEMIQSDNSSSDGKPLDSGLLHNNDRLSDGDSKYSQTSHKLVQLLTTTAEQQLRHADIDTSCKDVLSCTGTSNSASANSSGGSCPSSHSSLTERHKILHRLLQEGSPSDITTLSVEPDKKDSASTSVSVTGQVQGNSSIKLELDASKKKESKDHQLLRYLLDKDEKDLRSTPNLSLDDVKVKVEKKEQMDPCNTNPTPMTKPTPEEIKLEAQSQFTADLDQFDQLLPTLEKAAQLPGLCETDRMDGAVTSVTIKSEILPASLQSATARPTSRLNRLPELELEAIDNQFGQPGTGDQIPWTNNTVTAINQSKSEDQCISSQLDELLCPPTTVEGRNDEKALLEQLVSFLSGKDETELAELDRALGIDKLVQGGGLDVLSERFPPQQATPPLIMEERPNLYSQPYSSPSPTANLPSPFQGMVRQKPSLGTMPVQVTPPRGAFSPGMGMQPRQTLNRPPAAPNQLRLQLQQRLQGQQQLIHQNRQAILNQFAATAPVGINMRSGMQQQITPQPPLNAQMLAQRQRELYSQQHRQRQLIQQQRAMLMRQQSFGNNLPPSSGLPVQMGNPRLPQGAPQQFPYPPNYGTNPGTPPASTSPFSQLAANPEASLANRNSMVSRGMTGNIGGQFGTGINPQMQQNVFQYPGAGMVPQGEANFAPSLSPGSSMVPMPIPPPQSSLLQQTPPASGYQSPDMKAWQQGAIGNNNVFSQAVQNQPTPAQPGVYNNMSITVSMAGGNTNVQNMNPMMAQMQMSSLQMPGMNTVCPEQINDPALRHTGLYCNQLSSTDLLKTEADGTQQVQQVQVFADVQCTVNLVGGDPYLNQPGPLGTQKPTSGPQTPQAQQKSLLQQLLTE
# T4 sequence (Q9UBE0 whole entry): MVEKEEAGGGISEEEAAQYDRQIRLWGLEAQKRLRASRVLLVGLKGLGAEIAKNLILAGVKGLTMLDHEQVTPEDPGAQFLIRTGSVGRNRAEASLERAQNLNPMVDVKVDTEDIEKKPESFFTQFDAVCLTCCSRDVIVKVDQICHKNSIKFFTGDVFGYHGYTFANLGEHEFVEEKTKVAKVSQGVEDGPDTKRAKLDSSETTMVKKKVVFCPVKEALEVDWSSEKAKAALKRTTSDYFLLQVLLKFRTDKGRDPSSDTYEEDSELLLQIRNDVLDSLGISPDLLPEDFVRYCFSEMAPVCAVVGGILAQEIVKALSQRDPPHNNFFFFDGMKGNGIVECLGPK
# T4 sequence (Q9UBT2 whole entry): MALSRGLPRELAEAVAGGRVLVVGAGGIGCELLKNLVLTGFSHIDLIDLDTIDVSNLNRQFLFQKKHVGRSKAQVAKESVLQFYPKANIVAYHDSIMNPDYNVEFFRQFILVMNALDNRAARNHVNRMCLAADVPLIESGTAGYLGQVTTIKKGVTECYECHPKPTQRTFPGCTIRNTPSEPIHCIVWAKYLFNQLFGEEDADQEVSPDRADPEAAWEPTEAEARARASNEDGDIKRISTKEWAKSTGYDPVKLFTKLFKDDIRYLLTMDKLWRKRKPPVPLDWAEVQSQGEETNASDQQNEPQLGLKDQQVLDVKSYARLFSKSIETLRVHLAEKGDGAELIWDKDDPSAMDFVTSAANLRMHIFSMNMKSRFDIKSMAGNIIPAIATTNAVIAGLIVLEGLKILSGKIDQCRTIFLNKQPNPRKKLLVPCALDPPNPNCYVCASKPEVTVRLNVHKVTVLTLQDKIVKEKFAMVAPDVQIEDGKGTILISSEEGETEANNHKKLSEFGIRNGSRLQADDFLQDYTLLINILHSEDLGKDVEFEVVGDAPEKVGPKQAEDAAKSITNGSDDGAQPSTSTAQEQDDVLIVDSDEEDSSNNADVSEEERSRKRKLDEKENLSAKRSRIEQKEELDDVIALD
smiles,measurement,setting,value
CSc1c(SCc2ccccc2)cnn(Cc2ccccc2)c1=O,EC50,[1],34.3 µM (active)
same,EC50,[2],> 150 µM (not active)
same,EC50,[3],3.38 µM (active)
same,EC50,[4],2.68 µM (active)
same,EC50,[5],> 79.4 µM (not active)
same,EC50,[6],8.09 µM (active)
COc1ccc2nc(NS(=O)(=O)c3ccc(NC(C)=O)cc3)sc2c1,EC50,[7],3.35 µM (active)
same,EC50,[8],3.76 µM (active)
Cn1c(=S)[nH]c2scc(-c3cccs3)c2c1=O,EC50,[9],0.361 µM (active)
same,EC50,[4],10.5 µM (inactive)
same,EC50,[10],145 µM (inconclusive)
same,EC50,[5],> 79.4 µM (not active)
same,EC50,[6],11.4 µM (not active)
COc1cc(-n2c(=S)[nH]c3ccc(C)cc3c2=O)c(Cl)cc1Cl,EC50,[4],> 79.4 µM (inactive)
same,EC50,[5],> 79.4 µM (not active)
same,EC50,[6],> 79.4 µM (not active)
O=C(COC(=O)C(Cc1ccccc1)NC(=O)c1cccs1)NCc1ccccc1 (configuration not stated),IC50,[11],> 64.6 µM (inactive)
same,IC50,[12],38.6 µM (inactive)
CSc1oc(-c2ccccc2)nc1S(=O)(=O)c1ccc(C)cc1,EC50,[4],> 79.4 µM (inactive)
same,EC50,[5],> 79.4 µM (not active)
same,EC50,[6],> 79.4 µM (not active)
O=C(N/N=C\c1cc(Br)ccc1O)c1ccc(S(=O)(=O)N2CCCCC2)cc1,AC50,[13],0.809 µM (active)
same,EC50,[14],> 60 µM (not active)
same,EC50,[15],> 350 µM (not active)
same,EC50,[16],> 350 µM (not active)
same,AC50,[17],1.78 µM (active)
same,EC50,[18],0.758 µM (active)
same,AC50,[19],1.8 µM (active)
C=CCSC1=Nc2cc(OC)c(OC)cc2C2=NC(=O)CN12,EC50,[4],> 79.4 µM (inactive)
same,EC50,[5],> 79.4 µM (not active)
same,EC50,[6],> 79.4 µM (not active)
Cc1cc(-c2ccc(C(C)C)c(S(=O)(=O)N3CCN(c4ccccc4)CC3)c2)on1,IC50,[20],> 80 µM (inactive)
O=C(N/N=C/c1ccc(Cl)cc1)c1nc(O)c2cc([N+](=O)[O-])ccc2n1,IC50,[21],22 µM (active)
same,IC50,[22],21.5 µM (active)
Cc1cccc(-c2nnc(S)n2/N=C/C=C/c2ccco2)c1,IC50,[21],> 100 µM (inactive)
CCCc1cc(O)nc(SCC(=O)Nc2sc3c(c2C#N)CCCC3)n1,EC50,[7],4.73 µM (active)
COc1ccc(OC)c(Nc2cc(C)nc3ccc(C)cc23)c1,EC50,[7],5.96 µM (active)
same,EC50,[23],12.3 µM (active)
same,EC50,[24],44.2 µM (active)
same,EC50,[25],6.31 µM (active)
same,EC50,[26],> 120 µM (not active)
same,EC50,[27],9.69 µM (active)
same,EC50,[28],11.7 µM (active)
same,EC50,[29],18.8 µM (active)
COCC(C)NC(C(=O)Nc1ccc(Cl)c([N+](=O)[O-])c1)c1ccccc1 (configuration not stated),EC50,[7],5.96 µM (active)
CCOC(=O)C(C)Sc1nc2c(c(=O)[nH]c(=O)n2C)n1Cc1ccc(Cl)cc1 (configuration not stated),EC50,[7],0.749 µM (active)
Cc1ccc(NC(=O)/C=C/c2ccc([N+](=O)[O-])s2)c(C)c1,AC50,[13],4.69 µM (active)
same,AC50,[17],4.64 µM (active)
same,EC50,[30],1 µM (active)
same,AC50,[31],3.16 µM (active)
same,AC50,[19],1.3 µM (active)
same,EC50,[32],1.03 µM (active)
CC1CCN(c2c(NCc3ccc(C(=O)N4CCc5ccccc54)cc3)c(=O)c2=O)CC1,EC50,[24],12.3 µM (active)
same,EC50,[25],8.86 µM (active)
same,EC50,[26],> 60 µM (not active)
same,IC50,[20],> 80 µM (inactive)
Cc1cc(NCc2ccccc2)nc(N2CCOCC2)n1,EC50,[7],4.73 µM (active)
